Test [1] deals with MOLT-3. The test can be described thus: Antiproliferative activity against human MOLT3 cells assessed as reduction in cell viability after 3 days by MTT assay. Type of test: functional, cell-based. Conditions: MOLT-3, 72 h. In general terms: Tetrazolium assays rely on reduction of a dye to a coloured formazan, in cell work by metabolically active cells.
Test [2] concerns HT-29. In words: Antiproliferative activity against human HT-29 cells assessed as reduction in cell viability after 48 hrs by MTT assay. Format: functional, cell-based. Conditions: HT-29, 48 h.
In test [3] the test system is A549. In words: Antiproliferative activity against human A549 cells assessed as reduction in cell viability after 48 hrs by MTT assay. Format: functional, cell-based. Conditions: A549, 48 h.
Test [4] concerns A549. In words: Antiproliferative activity against human A549 cells assessed as reduction in cell viability after 72 hrs by MTT assay. Type of test: functional, cell-based. As to conditions: A549, 72 h.
Test [5] has as its system HepG2. In words: Antiproliferative activity against human HepG2 cells assessed as reduction in cell viability after 72 hrs by MTT assay. As to conditions: HepG2, 72 h. Type of test: functional, cell-based.
Test [6] has as its system K562. In words: Antiproliferative activity against human K562 cells assessed as reduction in cell viability after 72 hrs by MTT assay. Type of test: functional, cell-based. As to conditions: K562, 72 h.
The subject of test [7] is THP-1. In words: Growth inhibition of human THP1 cells incubated for 72 hrs by trypan blue assay. Format: functional. As to conditions: THP-1, 72 h.
Test [8] has as its target Histone deacetylase 3/Nuclear receptor corepressor 2 (HDAC3/NCoR2) (Homo sapiens, UniProt O15379). The test can be described thus: Inhibition of recombinant human C-terminal GST/His-tagged HDAC3 (1 to 428 residues) co-expressed with human N-terminal GST-tagged NCOR2 (395 to 489 residues) in baculovirus infected Sf9 cells using Boc-Lys(Ac)-AMC as substrate preincubated for 15 mins followed by substrate addition and measured after 60 mins by fluorometric method.

In test [9] the target is Bromodomain-containing protein 4 (Homo sapiens) (UniProt O60885). In words: Inhibition of GST-tagged BRD4 bromodomain 1/2 (unknown origin) at 10 uM incubated for 3 hrs by fluorescence based assay relative to control.
In test [10] the test system is HeLa. In words: Antiproliferative activity against human HeLa cells assessed as reduction in cell viability after 48 hrs by MTT assay. Format: functional, cell-based.
Test [11] addresses Tubulin (Bos taurus, UniProt Q6B856+Q862L2+Q862F3). In words: Inhibition of bovine brain tubulin polymerization by spectrometric analysis.
The subject of test [12] is MCF7. The test can be described thus: Antiproliferative activity against human MCF7 cells assessed as reduction in cell viability after 48 hrs by MTT assay. Format: functional, cell-based. Conditions: MCF7, 48 h.
In test [13] the test system is HepG2. The test can be described thus: Antiproliferative activity against human HepG2 cells assessed as reduction in cell viability after 48 hrs by MTT assay. As to conditions: HepG2, 48 h. Format: functional, cell-based.
Test [14] has as its target Aromatase (Homo sapiens, UniProt P11511). The test can be described thus: Inhibition of recombinant human CYP19 using MFC as substrate incubated for 30 mins in presence of NADPH by fluorescence based assay.
Test [15] concerns HuCC-A1. The test can be described thus: Antiproliferative activity against human HuCCa1 cells assessed as reduction in cell viability after 3 days by MTT assay. Conditions: HuCC-A1, 72 h. Format: functional, cell-based.
The nature of test [16]: Inhibition of bovine brain microtubule polymerization incubated for 60 mins by spectrophotometric method. Set-up: species or system Bos taurus.
In test [17] the target is Sigma non-opioid intracellular receptor 1 (Cavia porcellus, UniProt Q60492). In words: Displacement of (+)-[3H]pentazocine from sigma1 receptor in guinea pig brain membranes. Format: cell membranes.
Sequence of Sigma non-opioid intracellular receptor 1 (Q60492 whole entry): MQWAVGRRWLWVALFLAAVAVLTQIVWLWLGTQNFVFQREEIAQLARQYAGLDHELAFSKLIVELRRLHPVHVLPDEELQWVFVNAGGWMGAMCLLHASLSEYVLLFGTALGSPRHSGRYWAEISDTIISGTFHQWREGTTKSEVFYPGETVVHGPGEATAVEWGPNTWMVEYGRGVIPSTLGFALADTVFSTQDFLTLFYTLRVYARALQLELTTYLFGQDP
Test [18] addresses Histone deacetylase 3 (Homo sapiens, UniProt O15379). In words: Inhibition of HDAC3 (unknown origin).
Test [19] addresses Polyamine deacetylase HDAC10 (Homo sapiens, UniProt Q969S8). The test can be described thus: Inhibition of HDAC10 (unknown origin).
Test [20] addresses Histone deacetylase 1 (Homo sapiens, UniProt Q13547).
Description: Inhibition of HDAC1 (unknown origin)
Test [21] has as its target Histone deacetylase 2 (Homo sapiens, UniProt Q92769). In words: Inhibition of HDAC2 (unknown origin).
Test [22] deals with HCT-116. The test can be described thus: Antiproliferative activity against human HCT116 cells assessed as reduction in cell viability by MTT assay. Format: functional, cell-based.
Test [23] deals with HepG2. In words: Antiproliferative activity against human HepG2 cells assessed as reduction in cell viability by MTT assay. Type of test: functional, cell-based.
For test [24], the system named is LoVo. In words: Antiproliferative activity against human LoVo cells assessed as reduction in cell viability by MTT assay. Type of test: functional, cell-based.
In test [25] the target is Protein deacetylase HDAC6 (Homo sapiens, UniProt Q9UBN7). In words: Inhibition of HDAC6 (unknown origin) by fluorescence based assay.
The subject of test [26] is K562. In words: Antiproliferative activity against human K562 cells assessed as reduction in cell viability by MTT assay. Format: functional, cell-based.
Test [27] deals with MCF7. In words: Antiproliferative activity against human MCF7 cells assessed as reduction in cell viability by MTT assay. Type of test: functional, cell-based.
In test [28] the target is Histone deacetylase 8 (Homo sapiens, UniProt Q9BY41). In words: Inhibition of HDAC8 (unknown origin) by fluorescence based assay.
Sequence of Histone deacetylase 8 (Q9BY41 whole entry): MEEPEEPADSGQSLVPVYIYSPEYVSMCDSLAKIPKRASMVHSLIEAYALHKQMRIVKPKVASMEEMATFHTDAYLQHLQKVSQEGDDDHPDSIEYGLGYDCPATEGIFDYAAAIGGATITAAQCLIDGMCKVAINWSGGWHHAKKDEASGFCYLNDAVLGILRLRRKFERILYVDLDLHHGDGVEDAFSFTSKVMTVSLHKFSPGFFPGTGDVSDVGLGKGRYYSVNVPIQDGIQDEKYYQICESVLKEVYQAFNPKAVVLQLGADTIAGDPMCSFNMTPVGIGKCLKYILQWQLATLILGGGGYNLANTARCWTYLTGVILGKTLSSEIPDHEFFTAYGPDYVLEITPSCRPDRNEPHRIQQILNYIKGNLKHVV
Test [29] has as its target Induced myeloid leukemia cell differentiation protein Mcl-1 (Homo sapiens, UniProt Q07820). The test can be described thus: Inhibition of MCL1 (unknown origin).

Values after ≈ are worked out from the molar mass of the structure shown.

As a reminder, the IC50 is the concentration needed to halve the response being measured. As usually defined, the GI50 is the concentration giving 50% growth inhibition. Low values mean greater sensitivity of the cells, high ones lower sensitivity of the cells. In general, inhibition refers to how much of the control response was suppressed. Read a high inhibition as a response far below the control. One may read the Ki as the dissociation constant of the complex between target and ligand, obtained from inhibition or displacement.

Sequence of Histone deacetylase 3 (O15379 whole entry): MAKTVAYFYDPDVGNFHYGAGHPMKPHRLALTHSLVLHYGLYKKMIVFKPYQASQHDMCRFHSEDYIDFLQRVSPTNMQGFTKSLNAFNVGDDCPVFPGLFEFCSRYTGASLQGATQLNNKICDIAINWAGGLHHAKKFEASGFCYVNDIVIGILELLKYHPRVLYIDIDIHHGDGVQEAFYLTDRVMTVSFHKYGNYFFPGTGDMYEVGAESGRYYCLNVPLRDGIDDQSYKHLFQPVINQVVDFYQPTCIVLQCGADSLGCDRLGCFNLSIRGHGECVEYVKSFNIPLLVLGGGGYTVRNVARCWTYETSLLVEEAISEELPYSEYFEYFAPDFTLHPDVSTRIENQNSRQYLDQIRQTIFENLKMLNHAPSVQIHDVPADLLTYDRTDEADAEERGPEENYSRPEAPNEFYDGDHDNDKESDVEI
Sequence of Histone deacetylase 3/Nuclear receptor corepressor 2 (HDAC3/NCoR2) (O15379 whole entry, the tested form may be a part): as the sequence (O15379 whole entry) above
Sequence of Histone deacetylase 3/Nuclear receptor corepressor 2 (HDAC3/NCoR2) (Q9Y618 whole entry, further chain, the tested form may be a part): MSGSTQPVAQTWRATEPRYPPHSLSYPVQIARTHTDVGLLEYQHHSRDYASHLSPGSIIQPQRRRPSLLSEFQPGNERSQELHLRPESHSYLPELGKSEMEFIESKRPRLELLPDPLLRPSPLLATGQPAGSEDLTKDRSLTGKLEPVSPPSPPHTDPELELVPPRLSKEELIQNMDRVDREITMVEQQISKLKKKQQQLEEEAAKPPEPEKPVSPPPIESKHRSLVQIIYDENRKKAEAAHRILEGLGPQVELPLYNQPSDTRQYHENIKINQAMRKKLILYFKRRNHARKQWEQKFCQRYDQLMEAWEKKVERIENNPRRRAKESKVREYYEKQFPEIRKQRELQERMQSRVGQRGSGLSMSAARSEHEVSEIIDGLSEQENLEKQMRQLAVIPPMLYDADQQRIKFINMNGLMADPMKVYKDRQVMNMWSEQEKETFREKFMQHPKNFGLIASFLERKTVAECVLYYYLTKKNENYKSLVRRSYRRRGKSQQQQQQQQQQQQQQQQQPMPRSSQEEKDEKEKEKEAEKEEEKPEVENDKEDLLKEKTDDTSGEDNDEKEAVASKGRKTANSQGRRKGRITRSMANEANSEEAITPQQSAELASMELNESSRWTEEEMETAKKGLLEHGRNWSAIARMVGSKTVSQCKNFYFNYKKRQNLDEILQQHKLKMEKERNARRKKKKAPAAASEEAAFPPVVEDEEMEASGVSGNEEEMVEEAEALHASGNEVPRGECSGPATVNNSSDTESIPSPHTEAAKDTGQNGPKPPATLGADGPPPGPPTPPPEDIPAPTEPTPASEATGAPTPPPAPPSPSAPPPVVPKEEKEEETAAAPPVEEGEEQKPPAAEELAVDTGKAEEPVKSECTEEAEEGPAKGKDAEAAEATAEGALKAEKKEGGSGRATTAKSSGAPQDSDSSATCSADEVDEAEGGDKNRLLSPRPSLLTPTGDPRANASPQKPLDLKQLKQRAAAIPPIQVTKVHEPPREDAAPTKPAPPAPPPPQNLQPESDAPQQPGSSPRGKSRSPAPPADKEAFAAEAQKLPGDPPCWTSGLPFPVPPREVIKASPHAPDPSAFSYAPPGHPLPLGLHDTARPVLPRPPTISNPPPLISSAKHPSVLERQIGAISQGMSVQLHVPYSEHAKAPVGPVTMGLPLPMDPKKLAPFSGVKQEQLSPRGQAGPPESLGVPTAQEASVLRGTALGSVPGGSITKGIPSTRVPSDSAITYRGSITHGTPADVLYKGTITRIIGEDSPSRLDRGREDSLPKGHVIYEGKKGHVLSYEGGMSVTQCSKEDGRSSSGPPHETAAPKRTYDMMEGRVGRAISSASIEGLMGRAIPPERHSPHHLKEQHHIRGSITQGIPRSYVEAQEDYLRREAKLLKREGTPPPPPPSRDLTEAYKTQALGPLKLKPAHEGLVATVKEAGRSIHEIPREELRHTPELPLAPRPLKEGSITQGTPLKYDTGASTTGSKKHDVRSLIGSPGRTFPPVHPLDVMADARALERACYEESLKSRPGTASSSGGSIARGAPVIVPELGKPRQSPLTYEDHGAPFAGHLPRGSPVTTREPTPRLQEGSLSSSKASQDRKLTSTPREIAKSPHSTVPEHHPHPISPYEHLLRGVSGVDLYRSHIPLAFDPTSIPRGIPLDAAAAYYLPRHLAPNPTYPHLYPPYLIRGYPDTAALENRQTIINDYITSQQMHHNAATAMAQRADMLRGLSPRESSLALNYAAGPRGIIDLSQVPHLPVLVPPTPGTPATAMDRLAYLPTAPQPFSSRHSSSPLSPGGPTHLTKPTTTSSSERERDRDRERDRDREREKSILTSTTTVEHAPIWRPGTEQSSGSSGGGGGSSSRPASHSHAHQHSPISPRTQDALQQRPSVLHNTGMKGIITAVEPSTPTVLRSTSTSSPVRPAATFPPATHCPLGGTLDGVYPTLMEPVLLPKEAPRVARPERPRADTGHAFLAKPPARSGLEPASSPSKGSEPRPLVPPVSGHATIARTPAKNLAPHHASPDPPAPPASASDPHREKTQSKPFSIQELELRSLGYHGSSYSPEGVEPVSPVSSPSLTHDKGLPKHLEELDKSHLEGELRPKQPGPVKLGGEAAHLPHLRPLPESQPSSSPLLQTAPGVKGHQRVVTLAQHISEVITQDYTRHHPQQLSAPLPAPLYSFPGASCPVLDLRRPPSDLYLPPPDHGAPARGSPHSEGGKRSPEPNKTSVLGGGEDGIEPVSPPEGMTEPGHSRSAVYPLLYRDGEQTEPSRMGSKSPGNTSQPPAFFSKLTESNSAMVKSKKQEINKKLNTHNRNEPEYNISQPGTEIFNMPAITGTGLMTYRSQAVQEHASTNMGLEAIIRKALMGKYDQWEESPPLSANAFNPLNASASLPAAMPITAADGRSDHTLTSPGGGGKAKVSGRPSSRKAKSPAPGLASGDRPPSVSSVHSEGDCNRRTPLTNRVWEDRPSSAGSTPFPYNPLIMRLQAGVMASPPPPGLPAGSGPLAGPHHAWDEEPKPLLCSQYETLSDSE
Sequence of Polyamine deacetylase HDAC10 (Q969S8 whole entry): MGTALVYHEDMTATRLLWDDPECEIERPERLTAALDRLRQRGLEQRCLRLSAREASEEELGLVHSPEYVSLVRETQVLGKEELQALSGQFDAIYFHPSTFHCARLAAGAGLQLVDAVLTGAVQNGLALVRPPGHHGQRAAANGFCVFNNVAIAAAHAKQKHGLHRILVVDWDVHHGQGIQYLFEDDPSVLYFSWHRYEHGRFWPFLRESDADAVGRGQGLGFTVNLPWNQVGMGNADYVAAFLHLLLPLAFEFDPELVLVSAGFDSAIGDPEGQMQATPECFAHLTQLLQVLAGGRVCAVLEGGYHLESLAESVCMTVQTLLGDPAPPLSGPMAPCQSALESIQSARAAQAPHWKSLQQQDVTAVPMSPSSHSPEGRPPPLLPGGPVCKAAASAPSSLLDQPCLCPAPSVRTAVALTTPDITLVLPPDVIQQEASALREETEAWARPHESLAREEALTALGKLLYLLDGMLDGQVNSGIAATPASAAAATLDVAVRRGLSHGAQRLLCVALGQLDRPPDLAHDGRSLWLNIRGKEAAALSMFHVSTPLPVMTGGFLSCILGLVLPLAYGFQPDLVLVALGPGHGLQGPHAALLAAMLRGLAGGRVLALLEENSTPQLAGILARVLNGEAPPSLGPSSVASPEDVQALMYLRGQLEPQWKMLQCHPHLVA
Sequence of Aromatase (P11511 whole entry): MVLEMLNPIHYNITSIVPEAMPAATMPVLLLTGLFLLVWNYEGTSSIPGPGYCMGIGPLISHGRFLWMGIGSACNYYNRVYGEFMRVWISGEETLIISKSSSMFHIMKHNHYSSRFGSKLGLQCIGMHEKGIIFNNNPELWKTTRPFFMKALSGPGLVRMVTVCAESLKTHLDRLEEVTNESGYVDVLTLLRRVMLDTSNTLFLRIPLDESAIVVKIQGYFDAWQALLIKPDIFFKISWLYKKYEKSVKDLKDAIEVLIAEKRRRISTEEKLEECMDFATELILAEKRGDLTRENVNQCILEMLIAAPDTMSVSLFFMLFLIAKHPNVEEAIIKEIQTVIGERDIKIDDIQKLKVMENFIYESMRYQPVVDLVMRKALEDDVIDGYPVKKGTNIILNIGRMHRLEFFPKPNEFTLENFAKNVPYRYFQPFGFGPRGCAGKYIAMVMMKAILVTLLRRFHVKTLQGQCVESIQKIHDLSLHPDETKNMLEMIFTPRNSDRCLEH

In the case of `O=[N+]([O-])c1ccc(S(=O)(=O)NCCc2c(C(c3ccccc3O)c3[nH]c4ccccc4c3CCNS(=O)(=O)c3ccc([N+](=O)[O-])cc3)[nH]c3ccccc23)cc1`, the IC50 in [1] worked out at 3.95 µg/mL (≈ 4.97 µM).

For the molecule `CN1CCN(c2ncc([N+](=O)[O-])c(Nc3c(C(=O)c4cccs4)[nH]c4cc(Cl)ccc34)n2)CC1`, the IC50 in test [2] worked out at 5.56 µM; in [3], 14.4 µM.

Regarding `COc1cc(S(=O)(=O)/C=C/c2cccc3[nH]ccc23)cc(OC)c1OC`, the IC50 in test [4] worked out at 0.305 µM; in test [5], 0.075 µM; in test [6] it was 0.055 µM.

As for `Cc1noc(C)c1-c1ccc2c(c1)c(Cc1ccc(F)cc1)cn2CCCCCCC(=O)NO`, in [7], the GI50 was 7.82 to 24.2 µM. Besides, in test [8], the IC50 was 0.005 µM. Also, the inhibition in [9] was found to be 88%.

For `COc1cc(C2=NN(C(N)=O)C(c3cn(C)c4ccc(Br)cc34)C2)cc(OC)c1OC` (stereo unspecified), the IC50 in test [10] was found to be 0.21 µM; in test [3], 0.26 µM; in test [11], 2.12 µM; in test [12], 0.29 µM; in test [13], 0.31 µM.

Take `Cc1[nH]c2ccccc2c1/C=N\Nc1ccc(Cl)cc1`: the IC50 in test [14] was determined as 8.72 µM.

`O=S(=O)(NCCc1c(C(c2ccccc2O)c2[nH]c3ccccc3c2CCNS(=O)(=O)c2ccc(Cl)cc2)[nH]c2ccccc12)c1ccc(Cl)cc1`: the IC50 is 8.74 µM in [4] and 7.75 µM in test [15].

In turn, `CC[C@]1(O)C[C@H]2CN(CCc3c([nH]c4ccccc34)[C@@](C(=O)OC)(c3cc4c(cc3OC)N(C=O)[C@H]3[C@@](O)(C(=O)OC)[C@H](OC(C)=O)[C@]5(CC)C=CCN6CC[C@]43[C@@H]65)C2)C1` [VINCRISTINE] gave a Ki in test [16] of 0.085 µM.

Regarding `COc1cc2c(cc1OC)CN(CCCCc1cn(-c3ccc(F)cc3)c3ccccc13)CC2`, the Ki in test [17] came to 0.00534 µM.

`Nc1ccc(F)cc1NC(=O)c1ccc(CNC(=O)/C=C/c2cccnc2)cc1`: the IC50 stood at 0.067 µM in test [18], 0.078 µM in [19], 0.095 µM in test [20] and 0.16 µM in test [21].

For the molecule `COc1ccc2[nH]cc(Cn3cc(COc4ccc(/C=C/C(=O)NO)cc4OC)nn3)c2c1`, the IC50 in test [22] is 3.57 to 6.21 µM; in [23] it was 3.57 to 6.21 µM; in [24] it was 3.57 to 6.21 µM; in [25] it was 0.29 µM; in [26], 3.57 to 6.21 µM; in test [27], 3.57 to 6.21 µM. The same molecule gave a half-inhibitory concentration (IC50) in test [28] of 0.38 µM.

Molecule `Cc1cc(OCCCc2c(C(=O)NS(=O)(=O)c3ccc(C(=O)NCc4ccccc4)o3)[nH]c3c(-c4c(C)n[nH]c4C)c(Cl)ccc23)cc(C)c1Cl` showed a Ki in [29] of 0.0024 µM.
